Source: patent US5304367A, “In vivo brain imaging agent and method for diagnosis of psychiatric disorders” (New York University, priority 1990, dated 1994)
Read-outs that look alike come from different tables or passages of the source.

How the values were obtained:
β-adrenergic receptor = assay: quantitative autoradiography of brain sections from suicides and controls ([125I]iodopindolol); type: binding, human
Procedure: Beta Receptor Autoradiography
Iodopindolol is a well characterized βAR antagonist with a very high affinity (<1 nM) and specificity (Barovsky, K. et al., supra). Receptor binding studies are performed according to techniques well known in the art (see, for example, Kuhar, M. J., supra; Rainbow, T. C. et al., 1982, 1984, supra). A preferred method is described herein, although it will be apparent to one of skill in the art that the disclosed method may be modified according to the tissue preparation and ligand used.
Slides holding tissue sections are incubated for about 70 min at approximately 25° C. with 0.15 nM ^125 I-iodopindolol (New England Nuclear, 2200 Ci/mmole) in 25 mM Tris buffer, pH 7.5, containing 150 mM NaCl. Nonspecific binding is determined in the presence of 1 μM propranolol (see Examples, below). Zinterol, a selective β2 blocker, or metoprolol, a selective β1 antagonist, are added to the incubation buffer at 0.1 μM to achieve selective labeling of the β1 and β2 receptor subtypes, respectively. The incubation is followed by three 20 min washes in the same ice cold buffer. Slides are then dipped in ice cold distilled water to remove buffer salts, dried on a 50° C. slide warmer and apposed to ^3 H-sensitive film (Amersham ^3 H-hyperfilm) for 48-96 hours. The film is coexposed to commercial iodine standards (available from Amersham, for example). Film is developed manually using standard developer and fixer such as those available from the Eastman-Kodak Company. Sections are stained with cresyl violet and structures identified from the stained sections with the assistance of atlases and neuroanatomical texts such as: Barr M. L., The Human Nervous System: An Anatomical Viewpoint. Harper and Row, New York (1974); Carpenter M. B., Human Neuroanatomy. Williams and Wilkins, Baltimore (1976); DeArmond S. J. et al., Structure of the Human Brain : A Photographic Atlas. Oxford University Press, New York (1974); Nieuwenhuys R. et al., The Human Central Nervous System, Springer-Verlag, New York (1981 ), which references are hereby incorporated by reference.
Autoradiograms are analyzed by computerized image analysis systems well-known in the art (for example, with the aid of an IBM-PC). The autoradiograms are placed on a light box and a video camera is used for image acquisition. […] Standard curves derived from the iodine standards are used to convert gray level readings into equivalents of fmol ^125 I-iodopindolol / mg tissue. Specific binding is calculated by subtracting nonspecific from total binding.
Fourteen suicide and 14 pair-matched control brains were collected over 3 years from the medical examiner's offices in New York City and Jaffa, ISRAEL. […] The results of the coroner's examination as well as the results of broad-spectrum toxicological tests performed by the forensic laboratory were made available within 8 weeks. Only drug-free and pathology-free brains were included. For each suicide brain, a control matched for sex and age group with a PMD under 48 hours was collected the same day or within a few days, so that the pairs are also matched for storage time. The brains from each pair were dissected or sectioned on the same day and receptors were labeled in the same experiment, by an experimenter blind to the identity of the samples.
For autoradiography, slices from frontal cortical and anterior basal ganglia levels were sectioned in a Bright Cryotome (a refrigerated whole-body microtome) at -15° C. Sections of 40 μm were thaw- mounted onto gelatin-coated glass slides and βARs were labeled with [^125 I]iodopindolol (Pazos et al., Brain Res. 358:324-328 (1982)); Rainbow et al., Proc. Natl. Acad. Sci. U.S.A., 81:1585-1589 (1984)). Receptors were labeled with 150 pM iodopindolol, with or without 10^-6 M propranolol to define non-specific binding. The autoradiograms were developed after 48 or 72 hours. […]

[1] = whole body distribution, female BALB/c mice, 500 μCi/kg; type: in vivo, mouse (BALB/c)
βAR = type: binding, human

With `CC(C)NCC(O)COc1cccc2[nH]cc([125I])c12` (stereo not shown) [^125 I-iodopindolol] the nonspecific binding (β-adrenergic receptor; FIG. 2, sagittal section, normal male, in the presence of propranolol) was “low and uniform throughout the section”, the “[125I]iodopindolol bound” value (β-adrenergic receptor; caudate, control, n=5) was 13.2 ± 4.0 fm/mg tissue and the “[125I]iodopindolol bound” value (β-adrenergic receptor; caudate, suicide, n=5) was 15.4 ± 2.0 fm/mg tissue. The “[125I]iodopindolol bound” value (β-adrenergic receptor; cingulate gyrus, control, n=8) was 11.8 ± 3.3 fm/mg tissue, the “[125I]iodopindolol bound” value (β-adrenergic receptor; cingulate gyrus, suicide, n=8, P < 0.04) was 16.0 ± 2.7 fm/mg tissue and the “[125I]iodopindolol bound” value (β-adrenergic receptor; frontalis inferior, control, n=6) was 14.2 ± 4.0 fm/mg tissue. For the same molecule, the “[125I]iodopindolol bound” value (β-adrenergic receptor; frontalis inferior, suicide, n=6) was 17.2 ± 4.1 fm/mg tissue, the “[125I]iodopindolol bound” value (β-adrenergic receptor; frontalis medius, control, n=8) was 9.3 ± 4.0 fm/mg tissue and the “[125I]iodopindolol bound” value (β-adrenergic receptor; frontalis medius, suicide, n=8) was 16.7 ± 3.5 fm/mg tissue. For the same molecule, the “[125I]iodopindolol bound” value (β-adrenergic receptor; frontalis superior, control, n=9) was 10.8 ± 2.6 fm/mg tissue, the “[125I]iodopindolol bound” value (β-adrenergic receptor; frontalis superior, suicide, n=9, P < 0.03) was 17.2 ± 2.9 fm/mg tissue and the “[125I]iodopindolol bound” value (β-adrenergic receptor; putamen, control, n=5) was 19.5 ± 1.1 fm/mg tissue. The “[125I]iodopindolol bound” value (β-adrenergic receptor; putamen, suicide, n=5) was 17.4 ± 2.5 fm/mg tissue, the “[125I]iodopindolol bound” value (β-adrenergic receptor; white matter (cortical), control, n=9) was 5.6 ± 1.8 fm/mg tissue and the “[125I]iodopindolol bound” value (β-adrenergic receptor; white matter (cortical), suicide, n=9) was 6.7 ± 0.7 fm/mg tissue. For the same molecule, the “brain levels relative to blood levels (mCi per gram of brain / mCi per ml blood)” value ([1]; 1 minute post-injection) was “about 1/5”, the “brain levels, injected dose” value ([1]; 1 minute post-injection) was “less than 1 % of injected dose” and the urine levels ([1]; 1 minute post-injection) was “below the threshold of detection”. The “highest concentrations of radioactivity (counts/gram of tissue)” value ([1]; 1 minute post-injection, 500 μCi/kg i.v.) was “in the lungs, followed by heart and other organs”, the receptor occupancy ([1]; 120 min, based on Bmax of approximately 2 pmole/gram brain) was “less than 1%” and the “Bmax used for receptor occupancy” value ([1]; extrapolated from rat and human values) was “approximately 2 pmole/gram brain”. The “brain levels, total injected dose” value ([1]; two hours later (120 min)) was 0.06 % of total injected dose, the “highest activity, order of organs” value ([1]; two hours later (120 min)) was “highest activity was found in urine, followed by lung, heart and brain” and the specific binding (βAR; cingulate gyrus, external band, female, n=4) was 1.20 ± 0.31 fmol [^125 I]iodopindolol/mg tissue. The specific binding (βAR; cingulate gyrus, external band, male, n=10) was 0.99 ± 0.18 fmol [^125 I]iodopindolol/mg tissue, the specific binding (βAR; cingulate gyrus, internal band, female, n=4) was 1.31 ± 0.24 fmol [^125 I]iodopindolol/mg tissue and the specific binding (βAR; cingulate gyrus, internal band, male, n=10) was 0.87 ± 0.16 fmol [^125 I]iodopindolol/mg tissue. The specific binding (βAR; gyrus rectus, external band, female, n=3) was 1.42 ± 0.13 fmol [^125 I]iodopindolol/mg tissue, the specific binding (βAR; gyrus rectus, external band, male, n=9) was 0.93 ± 0.18 fmol [^125 I]iodopindolol/mg tissue and the specific binding (βAR; gyrus rectus, internal band, female, n=3) was 1.24 ± 0.23 fmol [^125 I]iodopindolol/mg tissue. The specific binding (βAR; gyrus rectus, internal band, male, n=9) was 0.80 ± 0.13 fmol [^125 I]iodopindolol/mg tissue, the specific binding (βAR; inferior frontal gyrus, external band, female, n=5) was 1.08 ± 0.19 fmol [^125 I]iodopindolol/mg tissue and the specific binding (βAR; inferior frontal gyrus, external band, male, n=11) was 0.86 ± 0.13 fmol [^125 I]iodopindolol/mg tissue. For the same molecule, the specific binding (βAR; inferior frontal gyrus, internal band, female, n=5) was 0.99 ± 0.16 fmol [^125 I]iodopindolol/mg tissue, the specific binding (βAR; inferior frontal gyrus, internal band, male, n=11) was 0.78 ± 0.13 fmol [^125 I]iodopindolol/mg tissue and the specific binding (βAR; medial frontal gyrus, external band, female, n=5) was 1.36 ± 0.23 fmol [^125 I]iodopindolol/mg tissue. The specific binding (βAR; medial frontal gyrus, external band, male, n=13) was 0.77 ± 0.12 fmol [^125 I]iodopindolol/mg tissue, the specific binding (βAR; medial frontal gyrus, internal band, female, n=5) was 1.09 ± 0.16 fmol [^125 I]iodopindolol/mg tissue and the specific binding (βAR; medial frontal gyrus, internal band, male, n=12) was 0.71 ± 0.10 fmol [^125 I]iodopindolol/mg tissue. For the same molecule, the specific binding (βAR; orbital gyri, external band, female, n=4) was 1.46 ± 0.25 fmol [^125 I]iodopindolol/mg tissue, the specific binding (βAR; orbital gyri, external band, male, n=11) was 0.77 ± 0.12 fmol [^125 I]iodopindolol/mg tissue and the specific binding (βAR; orbital gyri, internal band, female, n=4) was 1.24 ± 0.18 fmol [^125 I]iodopindolol/mg tissue. The specific binding (βAR; orbital gyri, internal band, male, n=10) was 0.70 ± 0.10 fmol [^125 I]iodopindolol/mg tissue, the specific binding (βAR; superior frontal gyrus, external band, female, n=6) was 1.48 ± 0.25 fmol [^125 I]iodopindolol/mg tissue and the specific binding (βAR; superior frontal gyrus, external band, male, n=16) was 0.87 ± 0.09 fmol [^125 I]iodopindolol/mg tissue. The specific binding (βAR; superior frontal gyrus, internal band, female, n=6) was 1.24 ± 0.12 fmol [^125 I]iodopindolol/mg tissue, the specific binding (βAR; superior frontal gyrus, internal band, male, n=16) was 0.82 ± 0.07 fmol [^125 I]iodopindolol/mg tissue and the specific binding (βAR; white matter, female, n=6) was 0.78 ± 0.09 fmol [^125 I]iodopindolol/mg tissue. For the same molecule, the specific binding (βAR; white matter, male, n=16) was 0.46 ± 0.04 fmol [^125 I]iodopindolol/mg tissue.
